From patent US6737383B1, “Herbicidal oxadiazolidines” (priority 1999, dated 2004)

Key:
[1] = tested on: rape; assay: Test B pre/postemergence rape; assay type: in vivo, Brassica napus
In short: (§1)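 Herbicidal effect was estimated by eye on a ten-point control scale after plants spent twelve to sixteen days in a greenhouse following soil or foliar treatment. Foliar sprays targeted plants at one to four leaves; all doses were formulated in a non-phytotoxic solvent with surfactant.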

[2] = tested on: smallflower flatsedge; assay: Test B flood test smallflower flatsedge; assay type: in vivo, Cyperus difformis
In short: (§2)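 Each value is a visual injury score relative to controls, with 10 meaning complete control and 0 no effect. Evaluation took place twelve to sixteen days after the 2-leaf-stage plants were treated and kept in the greenhouse.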

[3] = tested on: velvetleaf; assay: Test B pre/postemergence velvetleaf; assay type: in vivo, Abutilon theophrasti
In short: as §1

[4] = tested on: cocklebur; assay: Test B pre/postemergence cocklebur; assay type: in vivo, Xanthium strumarium
In short: as §1

[5] = tested on: duck salad; assay: Test B flood test duck salad; assay type: in vivo, Heteranthera limosa
In short: as §2

[6] = tested on: giant foxtail; assay: Test B pre/postemergence giant foxtail; assay type: in vivo, Setaria faberii
In short: as §1

[7] = tested on: wild oat; assay: Test B pre/postemergence wild oat; assay type: in vivo, Avena fatua
In short: as §1

[8] = tested on: blackgrass; assay: Test B pre/postemergence blackgrass; assay type: in vivo, Alopecurus myosuroides
In short: as §1

[9] = tested on: soybean; assay: Test B pre/postemergence soybean; assay type: in vivo, Glycine max
In short: as §1

[10] = tested on: corn; assay: Test B pre/postemergence corn; assay type: in vivo, Zea mays
In short: as §1

[11] = tested on: surinam grass; assay: Test B pre/postemergence surinam grass; assay type: in vivo, Brachiaria decumbens
In short: as §1

[12] = tested on: wheat; assay: Test B pre/postemergence wheat; assay type: in vivo, Triticum aestivum
In short: as §1

[13] = tested on: crabgrass; assay: Test B pre/postemergence crabgrass; assay type: in vivo, Digitaria sanguinalis
In short: as §1

[14] = tested on: morningglory; assay: Test B pre/postemergence morningglory; assay type: in vivo, Ipomoea hederacea
In short: as §1

[15] = tested on: bamyardgrass; assay: Test B flood test barnyardgrass; assay type: in vivo, Echinochloa crus-galli
In short: as §2

[16] = tested on: bedstraw; assay: Test B pre/postemergence bedstraw; assay type: in vivo, Galium aparine
In short: as §1

[17] = Preemergence, Rate 62 g/ha, scale of 0 to 10 where 0 is no effect and 10 is complete control
[18] = Preemergence, Rate 250 g/ha, scale of 0 to 10 where 0 is no effect and 10 is complete control
[19] = Preemergence, Rate 500 g/ha, scale of 0 to 10 where 0 is no effect and 10 is complete control
[20] = Rate 62 g/ha, Postemergence, scale of 0 to 10 where 0 is no effect and 10 is complete control
[21] = Rate 125 g/ha, Postemergence, scale 0 to 10
[22] = Rate 125 g/ha, Preemergence, scale of 0 to 10 where 0 is no effect and 10 is complete control
[23] = Rate 500 g/ha, Postemergence, scale 0 to 10, 0 no effect, 10 complete control
[24] = Rate 62 g/ha, headed Pre-emergence (flood test species), scale 0 to 10 (0 no effect, 10 complete control)
[25] = Rate 125 g/ha, Pre-emergence, flood test species, scale 0 to 10 where 0 is no effect and 10 is complete control
[26] = Rate 250 g/ha, Pre-emergence, flood-test species, scale 0 to 10, 0 is no effect, 10 is complete control
[27] = Rate 500 g/ha, Pre-emergence, flood test species, scale 0 to 10 (0 no effect, 10 complete control)

CCN(C(=O)n1oc(=O)n(C)c1=O)C1CCCCC1 [Compound 228]
9: Giant foxtail plant response rating [6, 18] | Plant response rating, Giant foxtail [6, 19] | Morningglory plant response rating [14, 23]
1: Plant response rating (0 to 10; 0 is no effect, 10 is complete control), Soybean ([9]; Rate 250 g/ha, Postemergence) | Soybean plant response rating [9, 23] | Crabgrass plant response rating [13, 18]
0: Rape plant response rating [1, 17] | Rape plant response rating [1, 18] | Plant response rating, Rape [1, 19] | Rape plant response rating [1, 20] | Rape plant response rating [1, 21] | Rape plant response rating [1, 22] | Plant response rating (0 to 10; 0 is no effect, 10 is complete control), Rape ([1]; Rate 250 g/ha, Postemergence) | Rape plant response rating [1, 23] | S. Flatsedge plant response rating [2, 24] | S. Flatsedge plant response rating [2, 25] | S. Flatsedge plant response rating [2, 26] | S. Flatsedge plant response rating [2, 27] | Velvetleaf plant response rating [3, 17] | Velvetleaf plant response rating [3, 18] | Plant response rating, Velvetleaf [3, 19] | Velvetleaf plant response rating [3, 20] | Velvetleaf plant response rating [3, 21] | Velvetleaf plant response rating [3, 22] | Plant response rating (0 to 10; 0 is no effect, 10 is complete control), Velvetleaf ([3]; Rate 250 g/ha, Postemergence) | Velvetleaf plant response rating [3, 23] | Cocklebur plant response rating [4, 17] | Cocklebur plant response rating [4, 18] | Plant response rating, Cocklebur [4, 19] | Cocklebur plant response rating [4, 20] | Cocklebur plant response rating [4, 21] | Cocklebur plant response rating [4, 22] | Plant response rating (0 to 10; 0 is no effect, 10 is complete control), Cocklebur ([4]; Rate 250 g/ha, Postemergence) | Cocklebur plant response rating [4, 23] | Ducksalad plant response rating [5, 24] | Ducksalad plant response rating [5, 25] | Ducksalad plant response rating [5, 26] | Ducksalad plant response rating [5, 27] | Giant foxtail plant response rating [6, 20] | Giant foxtail plant response rating [6, 21] | Plant response rating (0 to 10; 0 is no effect, 10 is complete control), Giant foxtail ([6]; Rate 250 g/ha, Postemergence) | Giant foxtail plant response rating [6, 23] | Wild oats plant response rating [7, 17] | Wild oats plant response rating [7, 18] | Plant response rating, Wild oats [7, 19] | Wild oats plant response rating [7, 20] | Wild oats plant response rating [7, 21] | Wild oats plant response rating [7, 22] | Plant response rating (0 to 10; 0 is no effect, 10 is complete control), Wild oats ([7]; Rate 250 g/ha, Postemergence) | Wild oats plant response rating [7, 23] | Blackgrass plant response rating [8, 17] | Blackgrass plant response rating [8, 18] | Plant response rating, Blackgrass [8, 19] | Blackgrass plant response rating [8, 20] | Blackgrass plant response rating [8, 21] | Blackgrass plant response rating [8, 22] | Plant response rating (0 to 10; 0 is no effect, 10 is complete control), Blackgrass ([8]; Rate 250 g/ha, Postemergence) | Blackgrass plant response rating [8, 23] | Soybean plant response rating [9, 17] | Soybean plant response rating [9, 18] | Plant response rating, Soybean [9, 19] | Soybean plant response rating [9, 20] | Soybean plant response rating [9, 21] | Soybean plant response rating [9, 22] | Corn plant response rating [10, 17] | Corn plant response rating [10, 18] | Plant response rating, Corn [10, 19] | Corn plant response rating [10, 20] | Corn plant response rating [10, 21] | Corn plant response rating [10, 22] | Plant response rating (0 to 10; 0 is no effect, 10 is complete control), Corn ([10]; Rate 250 g/ha, Postemergence) | B. signalgrass plant response rating [11, 17] | B. signalgrass plant response rating ([11]; Preemergence, Rate 250 g/ha, scale 0 to 10, 0 is no effect, 10 is complete control) | Plant response rating, B. signalgrass [11, 19] | B. signalgrass plant response rating [11, 20] | B. signalgrass plant response rating ([11]; Rate 125 g/ha, Postemergence, scale 0 (no effect) to 10 (complete control)) | B. signalgrass plant response rating [11, 22] | Plant response rating (0 to 10; 0 is no effect, 10 is complete control), B. signalgrass ([11]; Rate 250 g/ha, Postemergence) | B. signalgrass plant response rating [11, 23] | Wheat plant response rating [12, 17] | Wheat plant response rating [12, 18] | Plant response rating, Wheat [12, 19] | Wheat plant response rating [12, 20] | Wheat plant response rating [12, 21] | Wheat plant response rating [12, 22] | Plant response rating (0 to 10; 0 is no effect, 10 is complete control), Wheat ([12]; Rate 250 g/ha, Postemergence) | Wheat plant response rating [12, 23] | Crabgrass plant response rating [13, 17] | Crabgrass plant response rating [13, 20] | Crabgrass plant response rating [13, 21] | Crabgrass plant response rating [13, 22] | Plant response rating (0 to 10; 0 is no effect, 10 is complete control), Crabgrass ([13]; Rate 250 g/ha, Postemergence) | Crabgrass plant response rating [13, 23] | Morningglory plant response rating [14, 17] | Morningglory plant response rating [14, 18] | Plant response rating, Morningglory [14, 19] | Morningglory plant response rating [14, 22] | Barnyardgrass plant response rating [15, 24] | Barnyardgrass plant response rating [15, 25] | Barnyardgrass plant response rating [15, 26] | Barnyardgrass plant response rating [15, 27] | Bedstraw plant response rating [16, 17] | Bedstraw plant response rating [16, 18] | Plant response rating, Bedstraw [16, 19] | Bedstraw plant response rating [16, 20] | Bedstraw plant response rating [16, 21] | Bedstraw plant response rating [16, 22] | Plant response rating (0 to 10; 0 is no effect, 10 is complete control), Bedstraw ([16]; Rate 250 g/ha, Postemergence)
2: Corn plant response rating [10, 23] | Plant response rating, Crabgrass [13, 19] | Morningglory plant response rating [14, 20] | Bedstraw plant response rating [16, 23]
6: Giant foxtail plant response rating [6, 22]
3: Morningglory plant response rating [14, 21] | Plant response rating (0 to 10; 0 is no effect, 10 is complete control), Morningglory ([14]; Rate 250 g/ha, Postemergence)
